# Laboratory results reported in patent US10220040B2, “Compounds, compositions and methods useful for cholesterol mobilization” (Cerenis Therapeutics Holding SA, priority 2010, dated 2019).
# pEC50: −log10 of the molar value.
# Experiments:
# human P2Y13 receptor = human P2Y13 receptor (Homo sapiens (Human), UniProt Q9BPV8); assay: Ca++ flux agonist assay on P2Y13 receptor transfected 1321N1 cells; type: cell-based; details: Table 4, measured from data of Figure 2; comma is decimal sign
# Description: Compounds were assayed for their agonist activity on P2Y13 GPCR transfected cells using a Ca++ flux assay (associated to fluorescent dye detection) with the Reference Compound as positive reference. Two cell lines, 1321N1-P2Y13 stably expressing human P2Y13 receptor, and 1321N1 parental cell line as control, were used in this assay. 1321N1 Parental and 1321N1 P2Y13 were seeded into T25 flasks at 3 million cells per flask, respectively. Cells were incubated at 37 degrees Celsius in 5% CO2 overnight. The day after, cells were transfected with Gqi5 protein using Fugene transfection reagent (Roche's Fugene Reagent).
# After 24 hours of transfection, cells were collected from flasks and seeded in 384-well plates at 8000 cells per well. The assays were carried out 48 hours after Gqi5 transfection.
# Methods: The Ca++ flux assay was conducted according to the manufacturer's protocol (Molecular Devices FLIPR Calcium 4 Assay kit (R8142). Briefly, cell culture media were aspirated from the wells and replaced with 25 μL of Hank's buffer or PBS buffer. 25 μL of Ca++ dye was added into each assay well. The plate was incubated for 1 hour at 37° C. in 5% CO2. After the incubation, the plate was transferred to FlexStation III (FlexStation III (Molecular Devices)). The compounds were automatically injected into each well.
# C57Bl6 mice = assay: Dose response on bile physiology after single oral gavage in mice; type: in vivo
# Description: FIG. 16A-J: Increase of bile secretion following activation of P2Y13r pathway in mice. C57Bl/6J mice (n=10) were fasted for 2 h and then intravenously injected with Cangrelor® or Compound IIa (10 nmoles/kg). Four hours later the gallbladders were removed and analyzed for: Bile acids content (FIG. 16A); Bile cholesterol content (FIG. 16B). C57Bl/6J mice (n=10) were fasted for 2 h followed by single oral dose of P2Y13r agonist Compound IIa at 3, 30 or 300 μg/kg. Six hours later bile acids contents (FIG. 16C); bile cholesterol content (FIG. 16D), and bile acid content of liver (FIG. 16E) were evaluated using HPLC and enzymatic kits for gallbladers. Plasma samples were collected at time 0 and after 6 h of treatment, then analyzed for: total cholesterol (▴), unesterified cholesterol (●), esterified cholesterol (▪) and HDL cholesterol (▾) determined using either enzymatic kits or Lipoprint® for HDL cholesterol (FIG. 16F). C57Bl/6J mice (n=5) were intravenously injected with [^3H]-cholesterol-labelled mouse HDL (FIG. 16G), [^3H]-cholesteryl oleate-labelled mouse HDL (FIG. 16H) or [^3H]-cholesterol-labelled mouse LDL (FIG. 16I), and with Cangrelor® or Compound IIa (10 nmoles/kg). Radioactivity present in the liver was determined 2 hours later for the HDL or 5 hours later for the LDL. Cholesterol content of feces from treated animals (100 μg/kg) was determined by Charge aerosol detection (FIG. 16J). *p<0.05, **p<0.01.
# The dose response after oral gavage was determined for illustrative compounds of the invention. The chosen doses were 0.003, 0.03 and 0.3 mg/kg. The selected compounds of the invention were administrated by oral gavage and 6 hours later the mice are sacrificed and the bile content was analyzed (FIGS. 6-11).
# Bile acids were diluted in PBS (1:5000) and the concentration was measured according to the manufacturer protocol with slight modifications. Concentrations of bile acids in the standard curve were varied from […] and the enzymatic reaction was performed for 20 minutes. 4 μl of 1:5000 bile dilution was used for concentration determination.
# Bile phospholipids were measured according to the manufacturer protocol. Briefly, the standards were varied from 0 to 20 μg/ml and 4 μl of bile was measured in the assay. The reaction was performed for 5 minutes at 37° C.
# Bile phospholipids were measured according to the manufacturer protocol. Briefly, the standards were varied from 0 to 60 μg/ml and 10 μl of bile (dilution 1:10) was measured in the assay. The reaction was performed for 5 minutes at 37° C.
# [1] = tested on: P2Y13 knock-down Hepa 1-6 cells; assay: HDL uptake on P2Y13 knock-down Hepa 1-6 cells; type: cell-based, mouse; details: in presence of Compound IIa (1 μM); doxycycline 72 hours; p<0.005
# Description: FIG. 15: HDL uptake on P2Y13 knock-down Hepa 1-6 cells. Hepa 1-6 cells transduced with lentiviral particles coding the P2Y13 shRNA were induced by the addition of doxycycline for 72 hours. Cells were incubated for 10 min at 37° C. with 75 μg/ml ^3H cholesterol ether HDL and Compound IIa (1 μM). Data are expressed as the percentage of internalized radioactivity with respect to the control value (set as […]).*p<0.05, **p<0.005.
# In order to relate the specific P2Y13 HDL uptake to the illustrative compounds of the invention, a knock-down P2Y13 in a mouse liver cell line (Hepa 1-6) was investigated. Lentiviral particles coding for the mouse P2Y13 shRNA and inducible by the addition of doxycycline onto the cells (pTRIPZ vector from Open Biosystem) were used. In presence of doxycycline, a decrease of the P2Y13 mRNA (FIG. 11) was observed. The uptake of HDL on this cell line was measured in the presence and the absence of Compound IIa and doxycycline (FIG. 12). A significant decrease of HDL uptake (8.5%) was observed when the cells were treated with doxycycline (group vehicle—p<0.05).
# Transduced Hepa 1-6 cells were plated at 300,000 cells/well in 6×-well plates. […]
# The lentiviral production in HEK 293T and authorization for lentiviral production was obtained by Vectalys. […] 24 hours after transduction, the number of cells was counted. […]
# Sequence of human P2Y13 receptor (Q9BPV8 whole entry): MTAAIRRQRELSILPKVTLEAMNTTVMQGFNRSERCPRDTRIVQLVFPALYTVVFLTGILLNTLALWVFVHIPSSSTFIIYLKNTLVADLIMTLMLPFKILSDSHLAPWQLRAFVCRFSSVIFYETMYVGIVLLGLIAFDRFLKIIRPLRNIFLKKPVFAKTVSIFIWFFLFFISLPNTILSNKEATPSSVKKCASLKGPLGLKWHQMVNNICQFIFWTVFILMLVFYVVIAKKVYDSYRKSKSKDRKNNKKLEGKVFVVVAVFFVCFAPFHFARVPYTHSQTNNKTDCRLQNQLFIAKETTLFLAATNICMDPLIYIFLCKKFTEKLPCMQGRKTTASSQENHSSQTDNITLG
smiles,measurement,setting,value
"CN(C)c1ncc(CN2CCC(c3cc(O)nc(N4CCOCC4)n3)CC2)cn1 [Compound IIa, 6-[1-(2-Dimethylaminopyrimidin-5-ylmethyl)-piperidin-4-yl]-2-morpholin-4-yl-pyrimidin-4-ol]",pEC50,human P2Y13 receptor,4.39
same,plasma cholesterol and HDL,"C57Bl6 mice; after 4 h of treatment, exception: unesterified cholesterol",not significantly affected
same,"dose at which an effect on bile acids, bile cholesterol and bile phospholipids was shown","C57Bl6 mice; oral gavage 0.003, 0.03 and 0.3 mg/kg, bile analyzed 6 hours later",3 µg/kg
same,bile acid and cholesterol secretion in the bile,"C57Bl6 mice; oral gavage, doses as low as 30 μg/kg",stimulation
same,liver bile acid content,"C57Bl6 mice; oral, 30 μg/kg",increase
same,decrease of HDL uptake when cells were treated with doxycycline (P2Y13 knock-down),[1],17.5%
